# Laboratory results: patent US20250154195A1, “NOVEL BETULIN DERIVATIVES, AND THEIR MANUFACTURING METHOD AND USE AS SURFACTANT” (priority 2022, published 2025)
# Assay: not given
# Details: non-ionic surfactants, literature values; cited from earlier work
row,Compound,CMC
1,Brij 35,0.1 mM
2,Triton X-100,0.2 mM
3,fructose oleate,0.4 mM
4,sucrose monolaurate,0.45 mM

# Assay: Critical micelle concentration (CMC) in water by the stalagmometric method (surface tension vs. concentration)
# Assay type: physicochemical
# Details: not given
# Procedure: (§1) CMC of mono and di-hydrophilic moiety derivatized betulin derivatives were determined according to the stalagmometric method, which is one of the most common methods for measuring surface tension. Samples were prepared at different concentration of mono and di-hydrophilic moiety derivatized betulin derivatives. The surface tension of samples was calculated from the number of drops obtained by stalagmometer. CMC was calculated by plotting surface tensions vs. concentrations of sample.
# CMCs of mono-glycosylated betulin, di-glycosylated betulin, mono-(poly) ethoxylated-carbonated betulin and di-(poly) ethoxylated betulin were determined in water, respectively. Surface tensions of samples obtained in above examples were determined at different concentrations according to the stalagmometric method.
# as §1, with “mono-hydrophilic” for “mono and di-hydrophilic”
# CMCs of two mono-hydrophilic functionalized betulin at C28-hydroxy and C3-hydroxy group were determined in water, respectively. Surface tensions of samples obtained in above examples were determined at different concentrations according to the stalagmometric method. And CMC was obtained as 0.6 mM (Betulin-carbonate-polyether (PEA) from Example 10), and 0.5 mM (Betulin-carbonate-polyether (PEG) from Example 11), respectively, by plotting surface tensions vs. concentrations of sample.
row,Compound,CMC
1,"C=C(C)[C@@H]1CC[C@]2(COC3OC(CO)C(O)C(O)C3O)CC[C@]3(C)C(CCC4[C@@]5(C)CC[C@H](OC6OC(CO)C(O)C(O)C6O)C(C)(C)C5CC[C@]43C)C12 (some centres unmarked) [di-glycosylated betulin, diglucose-betulin]",1.0 mM
2,"C=C(C)[C@@H]1CC[C@]2(COC3OC(CO)C(O)C(O)C3O)CC[C@]3(C)C(CCC4[C@@]5(C)CC[C@H](O)C(C)(C)C5CC[C@]43C)C12 (some centres unmarked) [mono-glycosylated betulin, glucose-betulin]",0.8 mM
3,Betulin-carbonate-polyether (PEA),0.6 mM
4,Betulin-carbonate-polyether (PEG),0.5 mM
